These are literature values, as cited in publication PMC7028125 (Clinical Pharmacology in Drug Development, 2019).

For series [1], the system named is multidrug and toxin extrusion 1 transporter. The following applies: in vitro.
For series [2] the following is noted: mass balance study of 20 mg [14C]‐dolutegravir (80 µCi).
Series [3] concerns breast cancer resistance protein. Also noted: method as in PMID 23132334. The following applies: in vitro.
For series [4], the system named is organic cation transporter 2. Also noted: method as in PMID 23132334. The following applies: in vitro.
Another series deals with P‐glycoprotein. Set-up: method as in PMID 23132334. The following applies: in vitro.

Turning to `C[C@@H]1CCO[C@H]2Cn3cc(C(=O)NCc4ccc(F)cc4F)c(=O)c(O)c3C(=O)N12` [Dolutegravir, dolutegravir], in series [1], the “Inhibition of multidrug and toxin extrusion 1 transporter (in words)” value was “potently inhibits”. Further, in series [2], the “Dolutegravir recovered in feces” value is 64.0% and the “Dolutegravir recovered in urine” value is given as 31.6%. Moreover, the “Substrate for breast cancer resistance protein (in words)” value in series [3] is on record as “substrate”. The “Inhibition of organic cation transporter 2 (in words)” value in series [4] is given as “potently inhibits”. The “Substrate for P‐glycoprotein (in words)” value in the series on P‐glycoprotein was “substrate”.
